Results from patent publication US10196390B2, “TYK2 inhibitors and uses thereof” (Nimbus Lakshmi, Inc., priority 2014, dated 2019).
pEC50, pKi: −log10 of the molar value. Where two headings read alike, the source gives them in different places.

Tests used:
JAK2 = JAK2 (Homo sapiens (Human), UniProt O60674); test: JAK2 activity inhibition assay (radioactive kinase assay / Caliper assay); type: biochemical
Outline: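 Reaction ran 25 min at 28° C after adding peptide/ATP mix (10 mM MgCl2) to compound and enzyme in HEPES pH 7.5 buffer with Brij-35, Triton and EGTA. EDTA stop, then microfluidic off-chip separation quantified phosphorylated peptide.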

JAK2-pSTAT5 = test: GM-CSF induced pSTAT5 in human PBMC; type: cell-based; details: read-out: JAK2-pSTAT5 EC50
Method: Human PBMC are isolated from buffy coat and are stored frozen for assays as needed. […] 15 μl of compound or DMSO is added to the well at the desired concentrations and incubated at 1 hr at 37 C. 15 μl of stimulus (final concentration of 1.7 ng/mL IL-12) is added for 30 minutes prior to pSTAT4 and total STAT4 analysis using cell lysates prepared and analyzed by MSD reagents as per manufacturer protocol. The final DMSO concentration of compound in the assay is 0.1%.
Cells are prepared for analysis as in the above procedure and 15 μl of GM-CSF (final concentration 5 ng/mL) is added for 20 minutes prior to pSTAT5 and total STAT5 analysis using cell lysates prepared and analyzed by MSD reagents as per manufacturer protocol. The final DMSO concentration of compound in the assay is 0.1%.

Tyk2-pSTAT4 = test: IL-12 induced pSTAT4 in human PBMC; type: cell-based; details: read-out: Tyk2-pSTAT4 EC50
Method: Human PBMC are isolated from buffy coat and are stored frozen for assays as needed. Cells for assay are thawed and resuspended in complete media containing serum, then cells are diluted to 1.67 E6 cells/ml so that 120 μl per well is 200,000 cells. 15 μl of compound or DMSO is added to the well at the desired concentrations and incubated at 1 hr at 37 C. 15 μl of stimulus (final concentration of 1.7 ng/mL IL-12) is added for 30 minutes prior to pSTAT4 and total STAT4 analysis using cell lysates prepared and analyzed by MSD reagents as per manufacturer protocol. The final DMSO concentration of compound in the assay is 0.1%.

TYK2 = TYK2 (Homo sapiens (Human), UniProt P29597); test: Tyk2 activity inhibition assay (radioactive kinase assay / Caliper assay); type: biochemical
Sequence of TYK2 (P29597 whole entry): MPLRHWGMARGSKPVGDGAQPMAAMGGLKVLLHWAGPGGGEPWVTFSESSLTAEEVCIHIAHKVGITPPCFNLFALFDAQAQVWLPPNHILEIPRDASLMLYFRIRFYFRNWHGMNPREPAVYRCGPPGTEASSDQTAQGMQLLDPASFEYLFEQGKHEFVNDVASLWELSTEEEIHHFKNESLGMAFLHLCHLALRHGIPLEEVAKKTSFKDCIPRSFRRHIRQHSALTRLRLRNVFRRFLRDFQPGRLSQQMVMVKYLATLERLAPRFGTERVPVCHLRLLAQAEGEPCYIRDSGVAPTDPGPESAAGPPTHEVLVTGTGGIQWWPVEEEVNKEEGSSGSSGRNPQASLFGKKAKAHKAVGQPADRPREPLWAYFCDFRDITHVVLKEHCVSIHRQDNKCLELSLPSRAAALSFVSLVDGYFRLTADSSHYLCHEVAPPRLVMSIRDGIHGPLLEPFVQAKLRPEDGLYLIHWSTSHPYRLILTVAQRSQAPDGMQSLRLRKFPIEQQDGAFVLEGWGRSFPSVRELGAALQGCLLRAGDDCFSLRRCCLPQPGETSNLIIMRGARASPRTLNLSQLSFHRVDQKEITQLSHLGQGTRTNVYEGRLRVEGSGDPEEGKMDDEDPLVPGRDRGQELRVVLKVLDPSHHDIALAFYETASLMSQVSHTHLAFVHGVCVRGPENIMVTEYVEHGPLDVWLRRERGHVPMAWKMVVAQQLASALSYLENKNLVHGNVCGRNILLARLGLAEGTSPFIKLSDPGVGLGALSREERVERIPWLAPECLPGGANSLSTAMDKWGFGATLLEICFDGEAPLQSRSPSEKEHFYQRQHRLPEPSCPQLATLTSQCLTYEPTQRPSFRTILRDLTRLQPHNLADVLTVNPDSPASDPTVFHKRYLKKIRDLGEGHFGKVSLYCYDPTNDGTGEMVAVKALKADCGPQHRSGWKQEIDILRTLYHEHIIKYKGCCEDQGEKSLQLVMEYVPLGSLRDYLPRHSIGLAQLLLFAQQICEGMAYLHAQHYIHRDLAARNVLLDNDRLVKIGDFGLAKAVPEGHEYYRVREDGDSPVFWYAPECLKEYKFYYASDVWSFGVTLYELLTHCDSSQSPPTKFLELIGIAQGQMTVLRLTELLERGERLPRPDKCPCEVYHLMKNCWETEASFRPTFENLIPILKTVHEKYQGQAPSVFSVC
Outline: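 Two formats were used. Caliper off-chip mobility shift read phosphorylated peptide 30 (3 uM) after 25 min at 28° C with 9.75 nM TYK2 and ATP at 16 uM or 1 mM. Radioactive assay: 10 μM 33P-ATP, 20 μM peptide, 120 min room temp, P81 filter counting.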

[1] = GM-CSF induced pSTAT5, human PBMC
[2] = IL-12 induced pSTAT4, human PBMC

Sequence of JAK2 (O60674 whole entry): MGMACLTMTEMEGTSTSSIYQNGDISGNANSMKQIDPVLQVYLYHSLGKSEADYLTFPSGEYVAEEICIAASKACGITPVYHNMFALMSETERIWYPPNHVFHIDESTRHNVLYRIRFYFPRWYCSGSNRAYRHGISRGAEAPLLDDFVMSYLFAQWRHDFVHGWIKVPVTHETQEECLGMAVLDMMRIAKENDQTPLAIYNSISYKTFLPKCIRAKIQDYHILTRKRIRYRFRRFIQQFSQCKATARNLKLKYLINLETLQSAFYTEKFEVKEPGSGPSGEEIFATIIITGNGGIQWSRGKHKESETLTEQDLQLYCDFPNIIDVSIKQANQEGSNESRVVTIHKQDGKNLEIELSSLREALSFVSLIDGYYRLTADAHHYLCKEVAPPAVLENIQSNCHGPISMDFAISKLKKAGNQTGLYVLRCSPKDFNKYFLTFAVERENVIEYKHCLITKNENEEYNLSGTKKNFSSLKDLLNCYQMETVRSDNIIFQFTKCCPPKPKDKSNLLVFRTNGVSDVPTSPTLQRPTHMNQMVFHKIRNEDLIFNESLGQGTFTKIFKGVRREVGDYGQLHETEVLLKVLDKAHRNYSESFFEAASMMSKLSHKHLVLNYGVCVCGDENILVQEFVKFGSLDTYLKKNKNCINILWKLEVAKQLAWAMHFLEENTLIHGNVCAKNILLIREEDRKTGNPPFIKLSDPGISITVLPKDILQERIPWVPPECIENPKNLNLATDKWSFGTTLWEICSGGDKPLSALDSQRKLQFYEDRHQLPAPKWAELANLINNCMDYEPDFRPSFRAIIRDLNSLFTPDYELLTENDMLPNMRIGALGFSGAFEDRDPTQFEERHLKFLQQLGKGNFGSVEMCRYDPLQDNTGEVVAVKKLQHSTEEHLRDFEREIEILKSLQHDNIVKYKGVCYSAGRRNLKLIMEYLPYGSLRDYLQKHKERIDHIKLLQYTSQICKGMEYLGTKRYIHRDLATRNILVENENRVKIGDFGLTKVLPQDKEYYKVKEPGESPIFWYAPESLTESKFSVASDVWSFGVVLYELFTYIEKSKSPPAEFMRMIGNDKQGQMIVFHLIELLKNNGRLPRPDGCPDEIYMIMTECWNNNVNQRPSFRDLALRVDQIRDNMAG

pKi (JAK2; read-out: JAK2 Ki)	pEC50 (JAK2-pSTAT5; [1])	pEC50 (Tyk2-pSTAT4; [2])	pKi (TYK2)	Structure (SMILES)	pEC50 (JAK2-pSTAT5; Homo sapiens, PBMC)	pKi (JAK2)	pEC50 (Tyk2-pSTAT4; Homo sapiens, PBMC)
6.00 to 7.00	< 4.70	> 5.70	> 8.00	O=C1NCc2nc(-c3c(F)cccc3F)nc(Nc3ccc(CC(=O)N4CCC[C@H]4CO)cc3)c21 [Compound I-16, (S)-2-(2,6-difluorophenyl)-4-((4-(2-(2-(hydroxyl-methyl)pyrrolidin-1-yl)-2-oxoethyl)phenyl)amino)-6,7-dihydro-5H-pyrrolo[3,4-d]pyrimidin-5]			
6.00 to 7.00	< 4.70	> 5.70	> 8.00	C[C@H]1COCCN1C(=O)Cc1ccc(Nc2nc(-c3c(F)cccc3F)nc3c2C(=O)NC3)cc1 [Compound I-64, (S)-2-(2,6-difluorophenyl)-4-((4-(2-(3-methylmorpholino)-2-oxoethyl)phenyl)amino)-6,7-dihydro-5H-pyrrolo[3,4-d]pyrimidin-5-one]			
6.00 to 7.00	< 4.70	> 5.70	> 8.00	O=C(Cc1ccc(Nc2nc(-c3c(F)cccc3F)nc3c2C(=O)NC3)cc1)NC1CCOCC1 [Compound I-65, 2-(4-((2-(2,6-difluorophenyl)-5-oxo-6,7-dihydro-5H-pyrrolo[3,4-d]pyrimidin-4-yl)amino)phenyl)-N-(tetrahydro-2H-pyran-4-yl)acetamide]			
6.00 to 7.00	< 4.70	> 5.70	> 8.00	O=C1NCc2nc(-c3c(F)cccc3F)nc(Nc3ccc(CC(=O)N4CCOCC4)cc3)c21 [Compound I-66, 2-(2,6-difluorophenyl)-4-((4-(2-morpholino-2-oxoethyl)phenyl)amino)-6,7-dihydro-5H-pyrrolo[3,4-d]pyrimidin-5-one]			
6.00 to 7.00	< 4.70	> 5.70		CC(C)Oc1ccc(Nc2nc(-c3c(F)cccc3F)nc3c2C(=O)NC3)cc1 [Compound I-181, 2-(2,6-difluorophenyl)-4-((4-isopropoxyphenyl)amino)-6,7-dihydro-5H-pyrrolo[3,4-d]pyrimidin-5-one]			
6.00 to 7.00	< 4.70	> 5.70		O=C1NCc2nc(-c3c(F)cccc3F)cc(Nc3ccc(N4CCOCC4)nc3)c21 [Compound I-238, 2-(2,6-difluorophenyl)-4-((6-morpholinopyridin-3-yl)amino)-6,7-dihydro-5H-pyrrolo[3,4-b]pyridin-5-one]			
7.00 to 8.00	4.70 to 5.70	> 5.70		CC(C)N1CCN(c2ccc(Nc3cc(-c4c(F)cccc4F)nc4c3C(=O)NC4)nc2)C(=O)C1 [Compound I-242, 2-(2,6-difluorophenyl)-4-((5-(4-isopropyl-2-oxopiperazin-1-yl)pyridin-2-yl)amino)-6,7-dihydro-5H-pyrrolo[3,4-b]pyridin-5-one]			
7.00 to 8.00	4.70 to 5.70	> 5.70		CC(C)N1CCN(C(=O)c2ccc(Nc3cc(-c4c(F)cccc4F)nc4c3C(=O)NC4)cc2)CC1 [Compound I-243, 2-(2,6-difluorophenyl)-4-((4-(4-isopropylpiperazine-1-carbo-nyl)phenyl)amino)-6,7-dihydro-5H-pyrrolo[3,4-b]pyridin-5-one]			
7.00 to 8.00	> 5.70	> 5.70		O=C1NCc2nc(-c3c(F)cccc3F)cc(Nc3ccc(N4CCN(CC(F)F)CC4)cn3)c21 [Compound I-247, 4-((5-(4-(2,2-difluoroethyl)piperazin-1-yl)pyridin-2-yl)amino)-2-(2,6-difluorophenyl)-6,7-dihydro-5H-pyrrolo[3,4-b]pyridin-5-one]			
7.00 to 8.00	> 5.70	> 5.70		O=C1NCc2nc(-c3c(F)cccc3F)cc(Nc3ccc(N4CCOCC4=O)cn3)c21 [Compound I-248, 4-(6-((2-(2,6-difluorophenyl)-5-oxo-6,7-dihydro-5H-pyrrolo[3,4-b]pyridin-4-yl)amino)pyridin-3-yl)morpholin-3-one]			
7.00 to 8.00	< 4.70	> 5.70		O=C1NCc2nc(-c3c(F)cccc3F)cc(Nc3ccc(N4CCCOCC4)cn3)c21 [Compound I-253, 4-((5-(1,4-oxazepan-4-yl)pyridin-2-yl)amino)-2-(2,6-difluoro-phenyl)-6,7-dihydro-5H-pyrrolo[3,4-b]pyridin-5-one]			
7.00 to 8.00	4.70 to 5.70	> 5.70		O=C1NCc2nc(-c3c(F)cccc3F)cc(Nc3ccc(C(=O)N4CCCCC4)cc3)c21 [Compound I-257, 2-(2,6-difluorophenyl)-4-((4-(piperidine-1-carbonyl)phenyl)-amino)-6,7-dihydro-5H-pyrrolo[3,4-b]pyridin-5-one]			
6.00 to 7.00	< 4.70	> 5.70		CCNC(=O)c1ccc(Nc2cc(-c3c(F)cccc3F)nc3c2C(=O)NC3)cn1 [Compound I-260, 5-((2-(2,6-difluorophenyl)-5-oxo-6,7-dihydro-5H-pyrrolo[3,4-b]pyridin-4-yl)amino)-N-ethylpicolinamide]			
7.00 to 8.00	> 5.70	> 5.70		O=C1NCc2nc(-c3c(F)cccc3F)cc(Nc3ccc(N4CCN(CCC(F)(F)F)CC4)cn3)c21 [Compound I-262, 2-(2,6-difluorophenyl)-4-((5-(4-(3,3,3-trifluoropropyl)piperazin-1-yl)pyridin-2-yl)amino)-6,7-dihydro-5H-pyrrolo[3,4-b]pyridin-5-one]			
7.00 to 8.00	4.70 to 5.70	> 5.70		C[C@@H]1CCC[C@@H](C)N1c1ccc(Nc2cc(-c3c(F)cccc3F)nc3c2C(=O)NC3)nc1 [Compound I-265, 2-(2,6-difluorophenyl)-4-((5-((2R,6R)-2,6-dimethylpiperidin-1-yl)pyridin-2-yl)amino)-6,7-dihydro-5H-pyrrolo[3,4-b]pyridin-5-one]			
7.00 to 8.00	> 5.70	> 5.70		CC1(C)OCCN(c2ccc(Nc3cc(-c4c(F)cccc4F)nc4c3C(=O)NC4)nc2)C1=O [Compound I-273, 4-(6-((2-(2,6-difluorophenyl)-5-oxo-6,7-dihydro-5H-pyrrolo[3,4-b]pyridin-4-yl)amino)pyridin-3-yl)-2,2-dimethylmorpholin-3-one]			

Structure (SMILES)	pKi (JAK2; read-out: JAK2 Ki)	pEC50 (JAK2-pSTAT5; [1])	pEC50 (Tyk2-pSTAT4; [2])	pKi (TYK2)	pEC50 (JAK2-pSTAT5; Homo sapiens, PBMC)	pKi (JAK2)	pEC50 (Tyk2-pSTAT4; Homo sapiens, PBMC)
CCNC(=O)Cc1ccc(Nc2nc(-c3ccccc3Cl)nc3c2C(=O)NC3)cc1 [Compound I-20, 2-(4-((2-(2-chlorophenyl)-5-oxo-6,7-dihydro-5H-pyrrolo[3,4-d]pyrimidin-4-yl)amino)phenyl)-N-ethylacetamide]	6.00 to 7.00		> 5.70	7.00 to 8.00	< 4.70		
CN1CCN(C(=O)Cc2ccc(Nc3nc(-c4c(F)cccc4F)nc4c3C(=O)NC4)cc2)CC1 [Compound I-67, 2-(2,6-difluorophenyl)-4-((4-(2-(4-methylpiperazin-1-yl)-2-oxoethyl)phenyl)amino)-6,7-dihydro-5H-pyrrolo[3,4-d]pyrimidin-5-one]		< 4.70	> 5.70	> 8.00		7.00 to 8.00	
O=C1NCc2nc(-c3c(F)cccc3F)nc(Nc3ccc(CC(=O)N4CCN(CC(F)F)CC4)cc3)c21 [Compound I-78, 4-((4-(2-(4-(2,2-difluoroethyl)piperazin-1-yl)-2-oxoethyl)phenyl)amino)-2-(2,6-difluorophenyl)-6,7-dihydro-5H-pyrrolo[3,4-d]pyrimidin-5-one]				> 8.00	< 4.70	7.00 to 8.00	> 5.70
CCNC(=O)c1ccc(Nc2nc(-c3c(F)cccc3F)nc3c2C(=O)NC3)cc1 [Compound I-195, 4-((2-(2,6-difluorophenyl)-5-oxo-6,7-dihydro-5H-pyrrolo[3,4-d]pyrimidin-4-yl)amino)-N-ethylbenzamide]	6.00 to 7.00	< 4.70					> 5.70
CC1(O)CN(c2ccc(Nc3cc(-c4c(F)cccc4F)nc4c3C(=O)NC4)nc2)C1 [Compound I-228, 2-(2,6-difluorophenyl)-4-((5-(3-hydroxy-3-methylazetidin-1-yl)pyridin-2-yl)amino)-6,7-dihydro-5H-pyrrolo[3,4-b]pyridin-5-one]	7.00 to 8.00	4.70 to 5.70					> 5.70
O=C1NCc2nc(-c3c(F)cccc3F)cc(Nc3ccc(N4CC(F)(F)C4)cn3)c21 [Compound I-229, 4-((5-(3,3-difluoroazetidin-1-yl)pyridin-2-yl)amino)-2-(2,6-difluorophenyl)-6,7-dihydro-5H-pyrrolo[3,4-b]pyridin-5-one]	7.00 to 8.00	4.70 to 5.70					> 5.70
